Where two headings read alike, the source gives them in different places. Marks after values point to notes of the source that are not given here.
Experiments:
hCB1 receptor [1] = biological target: T1, hCB1 receptor (Homo sapiens, UniProt P21554); test: competitive [3H]CP‐55940 radioligand binding assay (hCB1 receptor affinity); conditions: Ki [nM] (95% CI), [3H]CP‐55940 competition, hCB1 membrane preparations (HEK293‐EBNA), Cheng–Prusoff; 95% CI in brackets
Procedure: (§1) Receptor assays were performed on three different days and each concentration was tested in duplicate.
From the IC50, the respective Ki values were calculated using the Cheng–Prusoff equation [39].

[2] = clinical symptoms, PSS and TSS assessment of individual intoxication cases; format: in vivo, human; design: key to PSS: 0: no; 1: mild; 2: moderate; 3: severe; 4: fatal intoxication
Procedure: Forty‐eight cases were included in the present study.
The PSS was determined based on the described symptoms.
(§2) For part G2, the severity of the intoxication caused by the respective SCRA x was assessed on the basis of reported symptoms and follow‐up information using the PSS [20]. The PSS classifies the intoxication severity into five levels: (0) no, (1) mild, (2) moderate, (3) severe, and (4) fatal intoxication. […] For this purpose, the mean value of the PSS of all intoxications with the respective SCRA x was calculated ( G2x) .
(§3) For part G3, the involvement of the SCRA in the respective intoxications was assessed. This was evaluated on the basis of the TSS [21]. Elliott et al. developed the TSS to assess and classify the contribution of NPS in fatalities. In the present study, the TSS was determined to weigh the involvement of the investigated SCRA in the intoxication and the contribution of the SCRA to the observed symptoms. To determine the TSS value, factors such as the determined concentration of the SCRA, the presence of other recreational drugs or medicinal drugs, the general health of the patient and the consumption circumstances need to be considered. […] In cases with more than one drug detected, a TSS of 3 was only assigned where other compounds were present at concentrations below the range in which relevant effects are to be expected.

[3] = risk score from prevalence in routine forensic samples and intoxication cases (G1, PSS, TSS); design: species or system human
From the text: Therefore, higher values indicate substances with a higher risk. […] To take into account the severity of symptoms and the contribution of the specific NPS, two further summands were introduced. The first is based on the PSS, the second on the TSS. Again, higher values were associated with more severe symptoms and a stronger role of the NPS in causing the symptoms.
The risk score is composed of three components (parts G1, G2 and G3) and was designed as follows: (1) Gx=G1x+G2x+G3x,
Equation 2 takes into consideration several components: the number of intoxications with SCRA x in quarter k over the total number of intoxications of all investigated SCRAs in the same quarter; the number of serum/blood samples positive for SCRA x over the total number of serum/blood samples positive for all SCRAs plus the number of urine samples positive for SCRA x over the total number of urine samples positive for all SCRAs (this is divided by two to account for the two different sample types); and the number of quarters in which the SCRA x was prevalent. (2) G1x=∑k=1gak/bk/ck/dk+ek/fk/2/h+i
Consequently, equation 2 was mathematically rearranged. To further simplify the equation and reduce the formula signs, in equation 3 the following simplifications were taken: a/b=ai , c/d=as and e/f=au .
The sum of these quotients was divided by the number of all prevalent quarters (q p ). Prevalent quarters were defined as quarters in which on average the substance was detected in more than 5% of the positive serum and urine samples. If a poisoning occurred in a quarter in which the substance was not prevalent, the number of these quarters was added (q i ). This part of the score has similarities with an OR [42]. If the proportion of routine samples in a given quarter in which an intoxication with the respective substance occurred was zero (a s + a u = 0), a value of 0.01 was used for that quarter in the calculation of the quotient to avoid division by zero.
as §2, §3
For the risk score, the mean value of the TSS of all intoxications with substance x was calculated ( G3x) . Analogous to the value of G2x , the value of G3x can theoretically be between 1 and 3. With a value of ‘1’, substance x was not mainly responsible for the symptoms in all of the intoxications (low level of significance), and with a value of ‘3’, it was the main cause in every poisoning in which it was detected.

[4] = occurrence of SCRAs in intoxication samples of the prospective study; design: species or system human; conditions: 2013 to 2021
From the text: For this study, the 10 SCRAs (AB‐[…], ADB‐[…], AB‐FUBINACA, FUB‐AMB, Cumyl‐PEGACLONE, MDMB‐4en‐PINACA, MDMB‐CHMICA, 5F‐MDMB‐PICA, 5F‐ADB and 5F‐PB‐22) which were most frequently detected in intoxications in a prospective observational study during the time period of 2013 to 2021 were selected (see Table 1). Additionally, JWH‐210, a model compound representative of the early SCRAs, along with two substances prevalent in screenings during years 2019/2020 (5F‐Cumyl‐PEGACLONE and 4F‐MDMB‐BICA), were included in this study (see Tables S2–S7). […] JWH‐018 was also included as a reference compound because of its historical use in this capacity. Including both reference compounds facilitates direct comparison with previously published data, thereby enhancing the relevance and interpretability of the results obtained in the present study. Information on the origin of the test and reference compounds and all chemicals used in this study can be found in Table S1.
The data on intoxication cases used for the development of this risk score were obtained from a prospective study. This study included patients who were treated in an emergency department room following the consumption of an NPS. Clinical symptoms and follow‐up information were documented using a structured questionnaire completed by the attending physicians. The methodology has been previously published. Residual serum (obtained from venous blood) and urine samples, accompanied by the completed questionnaires, were sent to the Poisons Information Center Freiburg for further analysis. The toxicological analyses of serum and urine samples were conducted at the Institute of Forensic Medicine Freiburg. No data was available on previous consumption patterns or potential development of tolerance after continued misuse. The study was conducted in accordance with the Declaration of Helsinki and approved by the regional ethics committee of the University of Freiburg (no. 235/13_130683). The intoxication cases included in this study are those in which SCRA use was confirmed by liquid chromatography tandem mass spectrometry (LC–MS/MS).

hCB1 receptor [5] = biological target: T1, hCB1 receptor; conditions: ref Wouters et al. [29], cited from earlier work
hCB1 receptor [6] = biological target: T1, hCB1 receptor; test: functional [35S]GTPγS hCB1 activation assay; format: biochemical
Procedure: as §1

T1 sequence (P21554 whole entry): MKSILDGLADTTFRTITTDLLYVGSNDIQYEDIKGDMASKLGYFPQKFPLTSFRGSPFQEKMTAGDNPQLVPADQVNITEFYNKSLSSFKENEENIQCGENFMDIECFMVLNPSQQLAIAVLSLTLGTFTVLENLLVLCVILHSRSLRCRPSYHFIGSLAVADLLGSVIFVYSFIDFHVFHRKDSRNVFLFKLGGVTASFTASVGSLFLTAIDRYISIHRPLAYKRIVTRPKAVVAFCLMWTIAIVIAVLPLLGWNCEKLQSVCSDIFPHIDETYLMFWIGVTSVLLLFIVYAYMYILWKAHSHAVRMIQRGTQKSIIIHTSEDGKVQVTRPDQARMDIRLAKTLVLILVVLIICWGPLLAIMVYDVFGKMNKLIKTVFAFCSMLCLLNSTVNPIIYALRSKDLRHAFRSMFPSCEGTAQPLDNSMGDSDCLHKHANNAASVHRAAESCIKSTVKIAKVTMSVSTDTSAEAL

CC(C)C(NC(=O)c1nn(CC2CCCCC2)c2ccccc12)C(N)=O (stereo not shown)
Ki (hCB1 receptor [1]): 0.145 nM
PSS ([2]; intoxication case A): 3
Recorded symptoms ([2]; intoxication case A, 3‐MMC also present): severe bradycardia (35 bpm/minutes)
Recorded symptoms ([2]; intoxication case A, 3‐MMC also present, listed as AB-CHMINACA): bradycardia (35 bpm/min), seizure, hypokalaemia
PSS ([2]; intoxication case B): 2
Recorded symptoms ([2]; intoxication case B, four other SCRAs at very low concentrations): disorientation and miosis
G total (risk score) ([3]; G1+G2+G3, higher value = greater toxicological risk): 7.2
G2 ([3]; mean Poison Severity Score (PSS) of all intoxications with the SCRA): 2.1
G3 ([3]; mean Toxicological Significance Score (TSS) of all intoxications with the SCRA): 2.3
G1 ([3]; proportion in intoxication cases relative to prevalence in routine serum/blood and urine samples per quarter, 2013–2021, >1 over‐represented in intoxications): 2.8
No. of intoxications ([4]; 139 intoxication samples of the prospective study): 33
Percentage in % ([4]; proportion of 139 intoxications in which the substance was detected): 24%
EC50 (hCB1 receptor [5]; read-out: βarr2 assay EC50 [nM] (95% CI)): 3.45 nM
βarr2 assay Emax [%] (95% CI) (hCB1 receptor [5]; relative to CP‐55940, originally normalised to JWH‐018, corrected with factor 0.3268): 1195 ^a (1097–1331) %
EC50 (hCB1 receptor [6]): 5.09 nM
Emax (hCB1 receptor [6]; read-out: [35S]‐GTPγS assay Emax [%] (95% CI)): 124%

From article PMC12980303, “Development of a novel risk score reflecting the relative harm potential of synthetic cannabinoids based on prevalence estimates, well‐documented intoxication cases and basic pharmacological data” (Addiction (Abingdon, England), 2025)
